Legend:
Assay type in all cases: in vivo
[1] = system: Surinam grass (Brachiaria decumbens); assay: Test B preemergence
Summary of the method: (§1)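 Pre: seeded pots sprayed, chemical in non-phytotoxic solvent/surfactant mix. Post: plants 2–18 cm, 1–4 leaf, same formulation. Greenhouse 13–15 d; visual % control vs untreated, 0–100 scale.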

[2] = system: barnyardgrass (Echinochloa crus-galli); assay: Test B preemergence
Summary of the method: as §1

[3] = system: cocklebur (Xanthium strumarium); assay: Test B preemergence
Summary of the method: as §1

[4] = system: corn (Zea mays); assay: Test B preemergence
Summary of the method: as §1

[5] = system: crabgrass (Digitaria sanguinalis); assay: Test B preemergence
Summary of the method: as §1

[6] = system: giant foxtail (Setaria faberii); assay: Test B preemergence
Summary of the method: as §1

[7] = system: lambsquarters (Chenopodium album); assay: Test B preemergence
Summary of the method: as §1

[8] = system: morning glory (Ipomoea hederacea); assay: Test B preemergence
Summary of the method: as §1

[9] = system: pigweed (Amaranthus retroflexus); assay: Test B preemergence
Summary of the method: as §1

[10] = system: rice (Oryza saliva); assay: Test B preemergence
Summary of the method: as §1

[11] = system: velvetleaf (Abutilon theophrasti); assay: Test B preemergence
Summary of the method: as §1

[12] = system: Nightshade; assay: Test C preemergence
[13] = system: Surinam grass (Brachiaria decumbens); assay: Test C preemergence; settings: for Plant response rating (0 to 100), Surinam grass: visual evaluation after 12 to 14 days
Summary of the method: (§2)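 Seeds are planted and treated before emergence; for the postemergence test, plants at 1- to 4-leaf stage (2–18 cm) receive the same formulation, a solvent blend containing surfactant. Plants stay in the greenhouse 12–14 days, then response is scored visually from 0 (none) to 100 (complete control).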

[14] = system: cocklebur (Xanthium strumarium); assay: Test C preemergence; settings: for Plant response rating (0 to 100), Cocklebur: visual evaluation after 12 to 14 days
Summary of the method: as §2

[15] = system: common ragweed (Ambrosia elatior); assay: Test C preemergence; settings: for Plant response rating (0 to 100), Ragweed, Common: visual evaluation after 12 to 14 days
Summary of the method: as §2

[16] = system: crabgrass (Digitaria sanguinalis); assay: Test C preemergence; settings: for Plant response rating (0 to 100), Crabgrass: visual evaluation after 12 to 14 days
Summary of the method: as §2

[17] = system: goosegrass (Eleusine indica); assay: Test C preemergence; settings: for Plant response rating (0 to 100), Goosegrass: visual evaluation after 12 to 14 days
Summary of the method: as §2

[18] = system: lambsquarters (Chenopodium album); assay: Test C preemergence; settings: for Plant response rating (0 to 100), Lambsquarters: visual evaluation after 12 to 14 days
Summary of the method: as §2

[19] = system: pigweed (Amaranthus retroflexus); assay: Test C preemergence; settings: for Plant response rating (0 to 100), Pigweed: visual evaluation after 12 to 14 days
Summary of the method: as §2

[20] = system: soybean (Glycine max); assay: Test C preemergence; settings: for Plant response rating (0 to 100), Soybean: visual evaluation after 12 to 14 days
Summary of the method: as §2

[21] = system: woolly cupgrass (Eriochloa villosa); assay: Test C preemergence; settings: for Plant response rating (0 to 100), Cupgrass, Woolly: visual evaluation after 12 to 14 days
Summary of the method: as §2

[22] = Preemergence, Rate 500 g/ha, scale 0 to 100, 0 no effect, 100 complete control
[23] = preemergence, Rate 125 g/ha, scale 0 to 100, 0 no effect, 100 complete control
[24] = Rate 125 g/ha, scale 0 to 100, 0 no effect, 100 complete control
[25] = Preemergence, Rate 500 g/ha, scale 0 to 100
[26] = Rate 62 g/ha, scale 0 to 100, 0 no effect, 100 complete control
[27] = preemergence, Rate 125 g/ha, scale of 0 to 100 where 0 is no effect and 100 is complete control, 13 to 15 days
[28] = preemergence, Rate 62 g/ha, scale 0 to 100
[29] = preemergence, Rate 250 g/ha, scale 0 to 100, 0 no effect, 100 complete control

## O=C1C(n2ccc(C3CCC3)n2)SCN1c1cccc(OC(F)F)c1 (stereo not drawn) [Compound 45]
[1]; [22]
  Plant response rating, Surinam grass: 80
[1]; [23]
  Plant response rating, Surinam grass: 70
[2]; [22]
  Plant response rating, Barnyardgrass: 100
[2]; [23]
  Plant response rating, Barnyardgrass: 80
[3]; [22]
  Plant response rating, Cocklebur: 0
[3]; [23]
  Plant response rating, Cocklebur: 0
[4]; [22]
  Plant response rating, Corn: 0
[4]; [23]
  Plant response rating, Corn: 0
[5]; [22]
  Plant response rating, Crabgrass: 100
[5]; [23]
  Plant response rating, Crabgrass: 30
[6]; [22]
  Plant response rating, Foxtail, Giant: 100
[6]; [23]
  Plant response rating, Foxtail, Giant: 100
[7]; [22]
  Plant response rating, Lambsquarters: 100
[7]; [23]
  Plant response rating, Lambsquarters: 100
[8]; [22]
  Plant response rating, Morningglory: 0
[9]; [22]
  Plant response rating, Pigweed: 100
[10]; [22]
  Plant response rating, Rice: 60
[11]; [22]
  Plant response rating, Velvetleaf: 0
[12]; Rate 62 g/ha; scale 0 to 100, 0 no effect, 100 complete control
  Plant response rating, Nightshade: 0
[12]; [24]
  Plant response rating, Nightshade: 0
[12]; Rate 500 g/ha, scale 0 to 100
  Plant response rating, Nightshade: 40
[13]; [25]
  Plant response rating, Surinam grass: 70
[13]; [26]
  Plant response rating, Surinam grass: 0
[13]; preemergence, Rate 250 g/ha
  Plant response rating (0 to 100), Surinam grass: 40
[13]; [23]
  Plant response rating, Surinam grass: 0
[14]; [25]
  Plant response rating, Cocklebur: 90
[14]; preemergence, Rate 250 g/ha
  Plant response rating (0 to 100), Cocklebur: 20
[14]; [23]
  Plant response rating, Cocklebur: 0
[15]; [25]
  Plant response rating, Ragweed, Common: 60
[15]; [26]
  Plant response rating, Ragweed, Common: 0
[15]; preemergence, Rate 250 g/ha
  Plant response rating (0 to 100), Ragweed, Common: 30
[15]; [23]
  Plant response rating, Ragweed, Common: 0
[16]; [25]
  Plant response rating, Crabgrass: 100
[16]; [26]
  Plant response rating, Crabgrass: 90
[16]; preemergence, Rate 250 g/ha
  Plant response rating (0 to 100), Crabgrass: 100
[16]; [23]
  Plant response rating, Crabgrass: 100
[17]; [25]
  Plant response rating, Goosegrass: 100
[17]; [26]
  Plant response rating, Goosegrass: 90
[17]; preemergence, Rate 250 g/ha
  Plant response rating (0 to 100), Goosegrass: 100
[17]; [23]
  Plant response rating, Goosegrass: 100
[18]; [25]
  Plant response rating, Lambsquarters: 100
[18]; [26]
  Plant response rating, Lambsquarters: 60
[18]; preemergence, Rate 250 g/ha
  Plant response rating (0 to 100), Lambsquarters: 100
[18]; [23]
  Plant response rating, Lambsquarters: 100
[19]; [25]
  Plant response rating, Pigweed: 30
[19]; [26]
  Plant response rating, Pigweed: 0
[19]; preemergence, Rate 250 g/ha
  Plant response rating (0 to 100), Pigweed: 0
[19]; [23]
  Plant response rating, Pigweed: 0
[20]; [25]
  Plant response rating, Soybean: 0
[20]; [26]
  Plant response rating, Soybean: 0
[20]; preemergence, Rate 250 g/ha
  Plant response rating (0 to 100), Soybean: 0
[20]; [23]
  Plant response rating, Soybean: 0
[21]; [25]
  Plant response rating, Cupgrass, Woolly: 100
[21]; [26]
  Plant response rating, Cupgrass, Woolly: 0
[21]; preemergence, Rate 250 g/ha
  Plant response rating (0 to 100), Cupgrass, Woolly: 70
[21]; [23]
  Plant response rating, Cupgrass, Woolly: 30

## CCCC(C)c1ccn(C2CCN(c3cccc(OC)c3)C2=O)n1 (stereo not drawn) [Compound 99]
[1]; [22]
  Plant response rating, Surinam grass: 20
[1]; [27]
  Plant response rating, Surinam grass: 0
[2]; [22]
  Plant response rating, Barnyardgrass: 100
[2]; [27]
  Plant response rating, Barnyardgrass: 0
[3]; [22]
  Plant response rating, Cocklebur: 0
[3]; [27]
  Plant response rating, Cocklebur: 0
[4]; [22]
  Plant response rating, Corn: 30
[4]; [27]
  Plant response rating, Corn: 0
[5]; [22]
  Plant response rating, Crabgrass: 100
[5]; [27]
  Plant response rating, Crabgrass: 0
[6]; [22]
  Plant response rating, Foxtail, Giant: 100
[6]; [27]
  Plant response rating, Foxtail, Giant: 0
[7]; [22]
  Plant response rating, Lambsquarters: 100
[7]; [27]
  Plant response rating, Lambsquarters: 100
[8]; [22]
  Plant response rating, Morningglory: 0
[8]; [27]
  Plant response rating, Morningglory: 0
[9]; [22]
  Plant response rating, Pigweed: 100
[9]; [27]
  Plant response rating, Pigweed: 0
[10]; [22]
  Plant response rating, Rice: 20
[10]; [27]
  Plant response rating, Rice: 0
[11]; [22]
  Plant response rating, Velvetleaf: 0
[11]; [27]
  Plant response rating, Velvetleaf: 0
[12]; Rate 62 g/ha, scale 0 to 100
  Plant response rating, Nightshade: 0
[12]; Rate 125 g/ha; scale 0 to 100, 0 no effect, 100 complete control
  Plant response rating, Nightshade: 0
[12]; Rate 250 g/ha, scale 0 to 100, 0 no effect, 100 complete control
  Plant response rating, Nightshade: 0
[13]; [24]
  Plant response rating, Surinam grass: 0
[13]; [28]
  Plant response rating, Surinam grass: 0
[13]; preemergence, Rate 500 g/ha
  Plant response rating (0 to 100), Surinam grass: 90
[13]; [29]
  Plant response rating, Surinam grass: 0
[14]; [24]
  Plant response rating, Cocklebur: 0
[14]; [28]
  Plant response rating, Cocklebur: 0
[14]; preemergence, Rate 500 g/ha
  Plant response rating (0 to 100), Cocklebur: 0
[14]; [29]
  Plant response rating, Cocklebur: 0
[15]; [24]
  Plant response rating, Ragweed, Common: 0
[15]; [28]
  Plant response rating, Ragweed, Common: 0
[15]; preemergence, Rate 500 g/ha
  Plant response rating (0 to 100), Ragweed, Common: 0
[15]; [29]
  Plant response rating, Ragweed, Common: 0
[16]; [24]
  Plant response rating, Crabgrass: 100
[16]; [28]
  Plant response rating, Crabgrass: 100
[16]; preemergence, Rate 500 g/ha
  Plant response rating (0 to 100), Crabgrass: 100
[16]; [29]
  Plant response rating, Crabgrass: 100
[17]; [24]
  Plant response rating, Goosegrass: 80
[17]; [28]
  Plant response rating, Goosegrass: 80
[17]; preemergence, Rate 500 g/ha
  Plant response rating (0 to 100), Goosegrass: 100
[17]; [29]
  Plant response rating, Goosegrass: 90
[18]; [24]
  Plant response rating, Lambsquarters: 100
[18]; [28]
  Plant response rating, Lambsquarters: 100
[18]; preemergence, Rate 500 g/ha
  Plant response rating (0 to 100), Lambsquarters: 100
[18]; [29]
  Plant response rating, Lambsquarters: 100
[19]; [24]
  Plant response rating, Pigweed: 90
[19]; [28]
  Plant response rating, Pigweed: 0
[19]; preemergence, Rate 500 g/ha
  Plant response rating (0 to 100), Pigweed: 70
[19]; [29]
  Plant response rating, Pigweed: 20
[20]; [24]
  Plant response rating, Soybean: 0
[20]; [28]
  Plant response rating, Soybean: 0
[20]; preemergence, Rate 500 g/ha
  Plant response rating (0 to 100), Soybean: 0
[20]; [29]
  Plant response rating, Soybean: 0
[21]; [24]
  Plant response rating, Cupgrass, Woolly: 0
[21]; [28]
  Plant response rating, Cupgrass, Woolly: 0
[21]; preemergence, Rate 500 g/ha
  Plant response rating (0 to 100), Cupgrass, Woolly: 100
[21]; [29]
  Plant response rating, Cupgrass, Woolly: 10

Reference: US7138361B2, “Herbicidal heterocycles” (E. I. du Pont de Nemours and Company, priority 2000, dated 2006)
